Where a name gives a salt, the structure may show the parent alone.
What was measured:
[1] = 60° C. temperature and 75% relative humidity; resulting in gum type or liquefied form
Source text: European Patent No. 281,459 B1 and U.S. Pat. No. 4,847,265 disclose a number of acid addition salts of clopidogrel prepared using various inorganic or organic acids.

[2] = orally administered to rat; cited from earlier work

Compound | Hygroscopicity [1] | LD50 [2]
Br [hydrobromide] | highly hygroscopic | 
hydrochloride | highly hygroscopic | 
O=S(=O)(O)c1cccc2c(S(=O)(=O)O)cccc12 [1,5-naphthalenedisulfonic acid] |  | 2,420 mg/kg

Reference: patent publication US7470707B2, “Crystalline monohydrate clopidogrel naphthalenedisulfonate and process of preparation” (Hanmi Pharm. Co., Ltd, priority 2004, dated 2008)
